SMILES strings stand for the structures.

As a reminder, the IC50 is the point on the concentration scale where inhibition reaches its midpoint.

The test system of the experiment is HIF-2α HIS TAG-PASB Domain. The experiment is described as follows: HIF-2α Scintillation Proximity Assay (SPA). In kind it is binding. The protocol: The percent inhibition was determined and IC50 values were calculated using the Dotmatics system based on the following equation: % inhibition=[(high control−sample)/(high control−low control)]×100.
(SPA uses beads or plates that emit light when radiolabelled molecules are held near them.)
In turn, `CS(=O)(=O)c1ccc(Oc2cc(F)cc(C#N)c2)c2c1C(O)CCC2` (stereo not shown) [Compound 95, 3-Fluoro-5-((5-hydroxy-4-(methylsulfonyl)-5,6,7,8-tetrahydronaphthalen-1-yl)oxy)benzonitrile] yielded a 50% inhibitory concentration (IC50) of 3600 nM.
In turn, `N#Cc1c(I)ccc(Oc2cc(F)cc(Cl)c2)c1Br` [Compound 96, 2-Bromo-3-(3-chloro-5-fluorophenoxy)-6-iodobenzonitrile] had an IC50 of 3100 nM.
Then `Fc1cc(Cl)cc(Oc2ccc(C(F)(F)F)c(Cl)c2Br)c1` [Compound 97, 2-Bromo-3-chloro-1-(3-chloro-5-fluorophenoxy)-4-(trifluoromethyl)benzene], with 2200 nM; and `N#Cc1c(S(=O)(=O)C(F)(F)F)ccc(Oc2cc(F)cc(Cl)c2)c1Br` [Compound 98, 2-Bromo-3-(3-chloro-5-fluorophenoxy)-6-((trifluoromethyl)sulfonyl)benzonitrile], with 15 nM; and `N#Cc1cc(F)cc(Oc2ccc(S(=O)(=O)C(F)(F)F)c(C#N)c2Br)c1` [Compound 100, 2-Bromo-3-(3-cyano-5-fluorophenoxy)-6-((trifluoromethyl)sulfonyl)benzonitrile], with 94 nM.
Then `O=Cc1c(S(=O)(=O)C(F)(F)F)ccc(Oc2cc(F)cc(Cl)c2)c1Br` [Compound 101, 2-Bromo-3-(3-chloro-5-fluorophenoxy)-6-((trifluoromethyl)sulfonyl)benzaldehyde], with 26 nM; and `O=S(=O)(c1ccc(Oc2cc(F)cc(Cl)c2)c(Br)c1CO)C(F)(F)F` [Compound 102, (2-Bromo-3-(3-chloro-5-fluorophenoxy)-6-((trifluoromethyl)sulfonyl)phenyl)methanol], with 120 nM.
With `CC(O)c1c(S(=O)(=O)C(F)(F)F)ccc(Oc2cc(F)cc(Cl)c2)c1Br` (stereo not shown) [Compound 103, 1-(2-Bromo-3-(3-chloro-5-fluorophenoxy)-6-((trifluoromethyl)sulfonyl)phenyl)ethan-1-ol], the IC50 was determined as 300 nM.
Then `CC(=O)c1c(S(=O)(=O)C(F)(F)F)ccc(Oc2cc(F)cc(Cl)c2)c1Br` [Compound 104, 1-(2-Bromo-3-(3-chloro-5-fluorophenoxy)-6-((trifluoromethyl)sulfonyl)phenyl)ethan-1-one], with 270 nM; and `N#Cc1c(Oc2cc(F)cc(Cl)c2)ccc(S(=O)(=O)C(F)(F)F)c1C(=O)O` [Compound 105, 3-(3-Chloro-5-fluorophenoxy)-2-cyano-6-((trifluoromethyl)sulfonyl)benzoic acid], with 12000 nM; and `CC(=NO)c1c(S(=O)(=O)C(F)(F)F)ccc(Oc2cc(F)cc(Cl)c2)c1Br` [Compound 106, 1-(2-Bromo-3-(3-chloro-5-fluorophenoxy)-6-((trifluoromethyl)sulfonyl)phenyl)ethan-1-one oxime], with 1000 nM.
Then `O=S(=O)(c1ccc(Oc2cc(F)cc(Cl)c2)c(Br)c1C=NO)C(F)(F)F` [Compound 107, 2-Bromo-3-(3-chloro-5-fluorophenoxy)-6-((trifluoromethyl)sulfonyl)benzaldehyde oxime], with 160 nM; and `O=S(=O)(c1ccc(Oc2cc(F)cc(Cl)c2)c(Br)c1CNCCO)C(F)(F)F` [Compound 108, 2-((2-Bromo-3-(3-chloro-5-fluorophenoxy)-6-((trifluoromethyl)sulfonyl)benzyl)amino)ethan-1-ol], with 5800 nM.
`CNCc1c(S(=O)(=O)C(F)(F)F)ccc(Oc2cc(F)cc(Cl)c2)c1Br` [Compound 109, 1-(2-Bromo-3-(3-chloro-5-fluorophenoxy)-6-((trifluoromethyl)sulfonyl)phenyl)-N-methylmethanamine]: the midpoint of inhibition, the IC50, lay at 2100 nM.
`O=S(=O)(c1ccc(Oc2cc(F)cc(Cl)c2)c(Br)c1CNCc1ccccc1)C(F)(F)F` [Compound 110, N-Benzyl-1-(2-bromo-3-(3-chloro-5-fluorophenoxy)-6-((trifluoromethyl)sulfonyl)phenyl)methanamine] had an IC50 of 1600 nM.
The figure for `N#Cc1c(S(=O)(=O)C(F)(F)F)ccc(Oc2cc(F)cc(Cl)c2)c1Cl` [Compound 111, 2-Chloro-3-(3-chloro-5-fluorophenoxy)-6-((trifluoromethyl)sulfonyl)benzonitrile] is 15 nM; for `O=Cc1c(S(=O)(=O)C(F)(F)F)ccc(Oc2cc(F)cc(Cl)c2)c1Cl` [Compound 112, 2-Chloro-3-(3-chloro-5-fluorophenoxy)-6-((trifluoromethyl)sulfonyl)benzaldehyde] it is 40 nM.
Compound `CNCc1c(S(=O)(=O)C(F)(F)F)ccc(Oc2cc(F)cc(Cl)c2)c1Cl` [Compound 113, 1-(2-Chloro-3-(3-chloro-5-fluorophenoxy)-6-((trifluoromethyl)sulfonyl)phenyl)-N-methylmethanamine] came in with an IC50 of 2300 nM.
The figure for `O=S(=O)(c1ccc(Oc2cc(F)cc(Cl)c2)c(Cl)c1CNCCF)C(F)(F)F` [Compound 114, N-(2-Chloro-3-(3-chloro-5-fluorophenoxy)-6-((trifluoromethyl)sulfonyl)benzyl)-2-fluoroethan-1-amine] is 1100 nM; for `N#Cc1cccc(Oc2ccc(S(=O)(=O)C(F)(F)F)cc2Br)c1` [Compound 117, 3-(2-Bromo-4-((trifluoromethyl)sulfonyl)phenoxy)benzonitrile] it is 210 nM; for `N#Cc1cc(F)cc(Oc2ccc(S(=O)(=O)C(F)(F)F)cc2Br)c1` [Compound 118, 3-(2-Bromo-4-((trifluoromethyl)sulfonyl)phenoxy)-5-fluorobenzonitrile] it is 160 nM.
The figure for `N#Cc1cc(F)cc(Oc2ccc(S(=O)(=O)C(F)(F)F)cc2C#N)c1` [Compound 120, 2-(3-Cyano-5-fluorophenoxy)-5-((trifluoromethyl)sulfonyl)benzonitrile] is 340 nM; for `COC(=O)c1cc(S(=O)(=O)C(F)(F)F)ccc1Oc1cc(F)cc(Cl)c1` [Compound 121, Methyl 2-(3-chloro-5-fluorophenoxy)-5-((trifluoromethyl)sulfonyl)benzoate] it is 16000 nM.
In the case of `O=S(=O)(c1ccc(Oc2cc(F)cc(Cl)c2)c(CO)c1)C(F)(F)F` [Compound 122, (2-(3-Chloro-5-fluorophenoxy)-5-((trifluoromethyl)sulfonyl)phenyl)methanol], inhibition was half-maximal at 1700 nM (IC50).
Then `O=Cc1cc(S(=O)(=O)C(F)(F)F)ccc1Oc1cc(F)cc(Cl)c1` [Compound 123, 2-(3-Chloro-5-fluorophenoxy)-5-((trifluoromethyl)sulfonyl)benzaldehyde], with 32 nM.
`NC(=O)c1cc(S(=O)(=O)C(F)(F)F)ccc1Oc1cc(F)cc(Cl)c1` [Compound 125, 2-(3-Chloro-5-fluorophenoxy)-5-((trifluoromethyl)sulfonyl)benzamide] registered a concentration for half-maximal inhibition (IC50) of 8000 nM.
Turning to `O=S(=O)(c1ccc(Oc2cc(F)cc(Cl)c2)c(CCO)c1)C(F)(F)F` [Compound 127, 2-[2-(3-Chloro-5-fluoro-phenoxy)-5-(trifluoromethylsulfonyl)phenyl]ethanol], the IC50 was found to be 2800 nM.
Then `O=S(=O)(c1cc(C(F)(F)F)ccc1Oc1cc(F)cc(Cl)c1)C(F)(F)F` [Compound 129, 1-(3-Chloro-5-fluorophenoxy)-4-(trifluoromethyl)-2-((trifluoromethyl)sulfonyl)benzene], with 2200 nM.
Regarding `C=CS(=O)(=O)c1ccc(Oc2cc(F)cc(Cl)c2)c(Br)c1` [Compound 130, 2-Bromo-1-(3-chloro-5-fluorophenoxy)-4-(vinylsulfonyl)benzene], it took 5500 nM to reach half-maximal inhibition (IC50).
The figure for `O=S(=O)(c1ccc(Oc2cc(F)cc(Cl)c2)c(Br)c1)C(F)F` [Compound 131, 2-Bromo-1-(3-chloro-5-fluorophenoxy)-4-((difluoromethyl)sulfonyl)benzene] is 310 nM.
Then `N#Cc1cc(F)cc(Oc2ccc(S(=O)(=O)C(F)F)cc2Br)c1` [Compound 132, 3-(2-Bromo-4-((difluoromethyl)sulfonyl)phenoxy)-5-fluorobenzonitrile], with 310 nM; and `N#Cc1cc(S(=O)(=O)C(F)F)ccc1Oc1cc(F)cc(Cl)c1` [Compound 133, 2-(3-Chloro-5-fluorophenoxy)-5-((difluoromethyl)sulfonyl)benzonitrile], with 500 nM; and `N#Cc1cc(F)cc(Oc2ccc(S(=O)(=O)C(F)F)cc2C#N)c1` [Compound 134, 2-(3-Cyano-5-fluorophenoxy)-5-((difluoromethyl)sulfonyl)benzonitrile], with 450 nM.
Compound `Cc1cc(S(=O)(=O)C(F)F)ccc1Oc1cc(F)cc(Cl)c1` [Compound 135, 1-(3-Chloro-5-fluoro-phenoxy)-4-(difluoromethylsulfonyl)-2-methyl-benzene] came in with an IC50 of 370 nM.
The figure for `Cc1cc(S(=O)(=O)C(F)F)ccc1Oc1cc(F)cc(C#N)c1` [Compound 136, 3-[4-(Difluoromethylsulfonyl)-2-methyl-phenoxy]-5-fluoro-benzonitrile] is 230 nM; for `O=S(=O)(CF)c1ccc(Oc2cc(F)cc(Cl)c2)c(Br)c1` [Compound 137, 2-Bromo-1-(3-chloro-5-fluorophenoxy)-4-((fluoromethyl)sulfonyl)benzene] it is 560 nM.
Then `CS(=O)(=O)c1ccc(Oc2cc(F)cc(Cl)c2)c(Br)c1` [Compound 138, 2-Bromo-1-(3-chloro-5-fluorophenoxy)-4-(methylsulfonyl)benzene], with 4000 nM; and `Cc1c(Oc2cc(F)cc(Cl)c2)ccc(S(=O)(=O)C(F)(F)F)c1Br` [Compound 140, 3-Bromo-1-(3-chloro-5-fluoro-phenoxy)-2-methyl-4-(trifluoromethylsulfonyl)benzene], with 29 nM.
For `Cc1c(Oc2cc(F)cc(C#N)c2)ccc(S(=O)(=O)C(F)(F)F)c1Br` [Compound 141, 3-[3-Bromo-2-methyl-4-(trifluoromethylsulfonyl)phenoxy]-5-fluoro-benzonitrile], the IC50 came out at 65 nM.
`Cc1c(Oc2cc(F)cc(C#N)c2)ccc(S(=O)(=O)C(F)(F)F)c1C#CCO` [Compound 142, 3-Fluoro-5-[3-(3-hydroxyprop-1-ynyl)-2-methyl-4-(trifluoromethylsulfonyl)phenoxy]benzonitrile]: the IC50 was found to be 13000 nM.
